In patent EP1060190B1, “NEW SALT FORMS OF (2E)- 5-AMINO-5- METHYLHEX-2- ENOIC ACID N-METHYL-N-((1R)-1-(N- METHYL-N-((1R)-1-(METHYLCARBAMOYL)-2- PHENYLETHYL)CARBAMOYL)-2- (2-NAPHTYL)ETHYL)AMIDE” (NOVO NORDISK A/S, priority 1998, dated 1999):
Counter-ions that a name gives are not always drawn.

Experiment: Exposure of the anhydrous salt form to high humidity (solid form stability)
Format: physicochemical
Settings: e.g. 10 weeks at 98% RH

- Exposure of the anhydrous form to high humidity: produced the hydrous form
SMILES: CNC(=O)[C@@H](Cc1ccccc1)N(C)C(=O)[C@@H](Cc1ccc2ccccc2c1)N(C)C(=O)/C=C/CC(C)(C)N [compound I,hfum, compound I,hemi fumarate]
